Source: PubChem BioAssay (NCI)
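Each compound was tested at five concentrations against cells in 96-well plates for 48 hours. The concentration for 50% growth inhibition is given as GI50. Definition used: TGI = concentration required for complete inhibition of growth.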

Legend:
Assay in all cases: NCI-60 cell line screen, 48 h
[1] = system: CAKI-1 renal
[2] = system: HS 578T breast
[3] = system: NCI-H23 lung
[4] = system: NCI/ADR-RES ovarian
[5] = system: OVCAR-4 ovarian
[6] = system: PC-3 prostate
[7] = system: SF-268 CNS
[8] = system: SF-539 CNS
[9] = system: SK-MEL-28 melanoma
[10] = system: UACC-257 melanoma

Structure (SMILES) | GI50 [1] [µM] | TGI [1] [µM] | GI50 [2] [µM] | TGI [2] [µM] | GI50 [3] [µM] | TGI [3] [µM] | GI50 [4] [µM] | TGI [4] [µM] | GI50 [5] [µM] | TGI [5] [µM] | GI50 [6] [µM] | TGI [6] [µM] | GI50 [7] [µM] | TGI [7] [µM] | GI50 [8] [µM] | TGI [8] [µM] | GI50 [9] [µM] | TGI [9] [µM] | GI50 [10] [µM] | TGI [10] [µM]
Cc1cnc(CNC(=O)c2c(=O)c3ccc(N4CCCN(C)CC4)nc3n3c2sc2ccccc23)cn1 | 2.49 | 18 | 16.6 | 47.4 | 0.922 | 6.1 | 1.18 | 30.6 | 1.4 | 10.3 | 4.04 | 9.7 | 1.55 | 25.6 | 3.76 | 8.51 | 14.8 | 30.5 | 17 | 32.9
O=[N+]([O-])c1ccc(N=Nc2ccc(O)c3ccccc23)cc1 | 4.17 | > 100 | 2.42 | 29.9 | 1.79 | 6.88 | 2.41 | 55.8 | 2.83 | > 100 | 1.67 | > 100 | 2.9 | > 100 | 10.3 | > 100 | 6.59 | > 100 | 3.6 | 14.6
O=C1C(c2cnc3ccccc3n2)=C(O)c2ccccc21 |  | > 100 |  | > 100 |  | > 100 |  | > 100 |  | > 100 |  | > 85.7 |  | > 100 |  | > 100 |  | > 100 |  | > 95.9
COc1ccc(C2=CC(c3ccc(OC)cc3Br)N3C=CSC3=N2)cc1 (stereo not given) | 13.4 | 51.4 | 14.4 | 66.5 | 15.2 | 42.8 | 4.43 | 29 | 5.04 | 27.3 | 6.4 | 31.9 | 13.7 | 48.5 | 4.61 | 17.1 | 8.83 | 22.3 | 10.8 | 31.3
COC(=N)c1c(N)[n+]([O-])c2ccc(F)cc2[n+]1[O-] | > 100 | > 100 | > 100 | > 100 | > 100 | > 100 | > 100 | > 100 | > 100 | > 100 | > 100 | > 100 | > 100 | > 100 | > 100 | > 100 | > 100 | > 100 | > 100 | > 100
COc1cc(OC)c(C(=O)/C=C/c2cccc(C#N)c2)c(OC)c1 | 2.03 | 7.16 | 1.59 | 44.9 | 1.21 | 4.59 | 1.44 | 10.5 | 2.03 | 10 | 1.71 | 8.26 | 1.69 | 7.9 | 1.41 | 4.12 | 1.58 | 6.24 | 2.1 | 8.69
O=[N+]([O-])c1ccc(N2CCC(CCCC3CCN(c4ccc([N+](=O)[O-])cc4[N+](=O)[O-])CC3)CC2)c([N+](=O)[O-])c1 |  | 41.1 |  | > 100 |  | 54.3 |  | 57.7 |  | 33.4 |  | 33.7 |  | 42.6 |  | 36.7 |  | 28.9 |  | 28.9
COc1cc(/C=C/C(=O)c2ccc(F)cc2)ccc1OCCCN1CCN(CC(=O)Nc2ccc(Cl)cc2C(=O)c2ccccc2Cl)CC1 | 11 | 32.5 | 7.01 | 46.3 | 17.4 | > 100 | 13 | > 100 | 9.48 | 34.5 | 5.06 | 45.7 | 16.9 | > 100 | 10.2 | 23.3 | 3.68 | 12.6 | 9.51 | 47.9
COC(=O)C1=C(C)NC(C)=C(C(=O)OCC(C)C)C1c1ccccc1[N+](=O)[O-] (stereo not given) | 2.29 | 11 | 13.9 | > 100 | 3.47 | 16.5 | 2.07 | 16.8 | 2.32 | 11.8 | 3.54 | 16.9 | 7.8 | 22.7 | 5.3 | 16.8 | 4.18 | 15.2 | 3.71 | 12.5
COc1cc([N+](=O)[O-])c(OC)cc1-c1nc2sccn2c1/C=N/N=C(N)N | 22.9 | 66.3 | 19 | 43.9 | 14.8 | 71.9 | 51.1 | > 100 | 52.2 | > 100 | 24.2 | > 100 | 4.86 | 35.3 | 12 | 46.5 | 27.9 | 63.4 | 21.5 | 54.2
